Marks after values point to notes of the source that are not given here.
Assays:
Format in all cases: in vivo, C57BL/6 mice
[1] = Measurement of weight caused by administration drug in melanoma mouse model
Protocol: (§1) In order to validate in vivo anti-tumor effects, female 5 week-old SPF C57BL/6 mice were purchased from Koatech Co. (South Korea). These mice were maintained in a room controlled at a temperature of about 22° C. while freely supplying food and water to them. 1 week after, 5×10^4 cells of B16F10 melanoma cell line (ATCC, CRL-6475™) were injected to these 6 week-old mice by subcutaneous injection. 8 week-old mice, 2 weeks after the injection of melanoma cell line, were used in the experiment.
(§2) As a carrier, 7 ml of 37% (v/v) […], 2.0 g of NaCl, 3.2 g of pepsin (Sigma-Aldrich), and distilled water were mixed together to prepare 1,000 ml of artificial gastric fluid. As an administration drug, N-((4-([1,2,4]triazolo[1,5-a]pyridin-6-yl)-5-(6-methylpyridin-2-yl)-1H-imidazol-2-yl)methyl)-2-fluoroaniline (hereinafter, referred to as “TEW-7197”) (Syngene, India) was dissolved in the carrier to prepare 2.5 mg/ml of TEW-7197 solution.
(§3) As for another administration drug, anti-PD-L1 monoclonal antibody (prepared by requesting to ANR therapeutics co., Ltd., host cell: HEK293F), anti-PD1 monoclonal hamster antibody (BioXCell, Cat. No. BE0033-2), anti-CTLA4 monoclonal hamster antibody (BioXCell, Cat. No. BE0131), human immunoglobulin G (IgG) (Thermo Scientific, Cat. No. 31154), and monoclonal hamster IgG (BioXCell, Cat. No. BE0091) were prepared.
(§4) The mouse models prepared in 1. were orally administered with 2.5 mg/ml of a TEW-7197 solution at a dose of 25 mg/weight kg once a day for 5 consecutive days of a week. Then, during the last 2 days, the TEW-7197 solution was not administered to them. These mice were administered with antibody at a dose of about 100 μg per mouse once every 2 days by abdominal injection. As for a control group for TEW-7197, a carrier administered group was used. As for a control group for antibody, a human IgG administered group and a hamster IgG administered group were used.
From the day that the drugs were administered (start date) to the 11th day, the weights of mice were measured every 2 days.

[2] = test system: B16F10 melanoma cell line; experiment: Test of tumor inhibitory effects of drug in mouse model; design: tumor inhibition rate (vs. vehicle, human IgG or hamster IgG administered group): concentration or dose not given beside the values; conditions: for Tumor volume change (Δt = Vt − V0): TEW-7197 25 mg/kg oral, antibody about 100 μg per mouse
Protocol: as §1, §2, §3, §4
As described in 2., drug administration was carried out, and then 20 minutes after the last dose of the drug, mice were sacrificed, tumors were resected from the mice. Tumor volume was measured with calipers and calculated using Equation 1: Tumor volume (mm^3)=[length (mm)×width (mm)×height (mm)]/2 [Equation 1]
The difference between the initial tumor volume (V0) in the start date and the tumor volume after drug administration (Vt) was calculated, to calculate the change in tumor volume (Δt=Vt−V0). From the calculated tumor volume, the tumor inhibition rate (%) by drug administration was calculated.

[3] = test system: B16F10 melanoma cell line; experiment: Test of synergistic combination of drugs in mouse model; conditions: 11 days after drug administration, TEW-7197 10 mg/kg oral, antibody about 100 μg per mouse
Protocol: In detail, as described in 1., C57BL/6 mice were prepared, and 1×10^4 cells of B16F10 melanoma cell line (ATCC, CRL-6475™) were injected to each of the mice. When the average tumor size of each group reached about 26.0 mm^3, drug administration was carried out.
As described in 1., TEW-7197, anti-CTLA4 antibody, anti-PD-L1 antibody, anti-PD1 antibody, human IgG, and hamster IgG were prepared as drugs.
The prepared mice were orally administered with a TEW-7197 solution at a dose of 10 mg/weight kg once a day for 5 consecutive days of a week. Then, during the last 2 days, the TEW-7197 solution was not administered. These mice were administered with antibody at a dose of about 100 μg per mouse once every 2 days by abdominal injection. In a negative control group, a vehicle was administered for TEW-7197, and human IgG or hamster IgG was administered for antibody. 11 days after the drug administration, tumor volume was measured with calipers and calculated as described in 3.

weight change of mice (average (%) ± standard deviation) ([1]; 2 days after administration, TEW-7197 25 mg/kg oral, antibody about 100 μg per mouse): 104.3 ± 1.2%
weight change of mice (average (%) ± standard deviation) ([1]; 4 days after administration, TEW-7197 25 mg/kg oral, antibody about 100 μg per mouse): 106.7 ± 3.5%
weight change of mice (average (%) ± standard deviation) ([1]; 6 days after administration, TEW-7197 25 mg/kg oral, antibody about 100 μg per mouse): 108.7 ± 4.5%
weight change of mice (average (%) ± standard deviation) ([1]; 8 days after administration, TEW-7197 25 mg/kg oral, antibody about 100 μg per mouse): 115.8 ± 6.4%
weight change of mice (average (%) ± standard deviation) ([1]; 11 days after administration, TEW-7197 25 mg/kg oral, antibody about 100 μg per mouse): 125.0 ± 6.5%
weight change of mice (average (%) ± standard deviation) ([1]; Start date, TEW-7197 25 mg/kg oral once a day 5 days a week, antibody about 100 μg per mouse every 2 days abdominal injection): 100.0 ± 0.0%
weight change caused by drug (in words) ([1]; up to 11th day, Table 2): barely had significant weight change
Structure (SMILES): Cc1cccc(-c2[nH]c(CNc3ccccc3F)nc2-c2ccc3ncnn3c2)n1 [TEW-7197, N-((4-([1,2,4]triazolo[1,5-a]pyridin-6-yl)-5-(6-methylpyridin-2-yl)-1H-imidazol-2-yl)methyl)-2-fluoroaniline]
tumor inhibition rate (vs. vehicle, human IgG or hamster IgG administered group) ([2]; 2 days after administration): 21.3%
Tumor volume change (Δt = Vt − V0) ([2]; 2 days after administration): 30.4 ± 6.6 mm^3
tumor inhibition rate (vs. vehicle, human IgG or hamster IgG administered group) ([2]; 4 days after administration): 21.7%
Tumor volume change (Δt = Vt − V0) ([2]; 4 days after administration): 100.4 ± 11.4* mm^3
tumor inhibition rate (vs. vehicle, human IgG or hamster IgG administered group) ([2]; 6 days after administration): 23.0%
Tumor volume change (Δt = Vt − V0) ([2]; 6 days after administration): 174.5 ± 29.6** mm^3
tumor inhibition rate (vs. vehicle, human IgG or hamster IgG administered group) ([2]; 8 days after administration): 22.9%
Tumor volume change (Δt = Vt − V0) ([2]; 8 days after administration): 455.3 ± 67.1* mm^3
tumor inhibition rate (vs. vehicle, human IgG or hamster IgG administered group) ([2]; 11 days after administration): 20.9%
Tumor volume change (Δt = Vt − V0) ([2]; 11 days after administration): 1084.0 ± 179.5* mm^3
Tumor volume change (Δt = Vt − V0) ([2]; Start date): 0.0 ± 0.0 mm^3
tumor volume decrease as compared with the negative control group ([3]; FIG. 1A (anti-CTLA4 series)): about 10.1%
tumor volume decrease as compared with the negative control group ([3]; FIG. 1B (anti-PD-L1 series)): about 9.2%
tumor volume decrease as compared with the negative control group ([3]; FIG. 1C (anti-PD1 series)): about 8.1%

Source: patent US10632110B2, “Pharmaceutical composition for preventing or treating cancer and method using thereof” (MEDPACTO INC., priority 2016, dated 2020)
